Read-outs that look alike come from different tables or passages of the source.
Tests used:
Assay type in all cases: cell-based, human
RAP1 = assay: Custom AntibodyArray, TRiPS cells: RAP1; settings: 15 μg/ml, 30 minutes
Experimental: (§1) Day 18 TRiPS cells, 1×10^6, were incubated for 30 minutes at 37° C., either with nothing added (“Nil”), with 1 μl CD3/CD28 Dynabeads (Dynal, Oslo, Norway) (“CD3/CD28 beads”) per 100,000 cells, or with CD3/CD28 beads and 15 μg/ml of the compound of formula II (Cpd II). After the incubation, the cells were lysed in Cell-Lytic Mammalian Cell Extraction Reagent (Sigma). After centrifugation to pellet cellular debris, the supernatants (cell extracts) were obtained.
(§2) The cell extracts (supernatants) were then analyzed using a Custom AntibodyArray™ manufactured by Hypromatrix Inc., Worcester, Mass., following the manufacturer's instructions. The Custom AntibodyArray™ is a nylon membrane blotted with antibodies to the proteins listed below. Briefly, the cell extracts were incubated with duplicate Custom AntibodyArray™'s for 2 hours at room temperature with slow shaking, followed by three washes with Tris buffer (150 mM NaCl, 25 mM Tris, 0.05% Tween-20, pH 7.5). HRP-labeled antibodies specific for phosphorylated-tyrosine, phosphorylated-serine and phosphorylated-threonine in Tris buffer were added, and the arrays incubated for 2 hours. After three more washes with Tris buffer, a peroxidase-reactive luminescent substrate was added. The arrays were visualized by exposure to X-ray film. Densitometry of the X-ray films was measured by scanning and computer analysis.

TNFα = TNFα release by PBL, ELISA; settings: donor GR191; 5 μg/ml PHA, 72 h; Cpd II 15 and 50 μg/ml, Dex 10 μM; FIG. 7
Experimental: (§3) After this incubation, PHA was added to give a final concentration of 5 μg/ml, and the cells were incubated for an additional 72 hours at 37° C., 5% CO2. All cultures were performed in triplicate. Cells were then removed by centrifugation at 1000 rpm for 10 minutes.
The TNFα ELISA was performed as described in Example 2 using matched pair antibodies from Pierce Endogen (2 μg/ml for the coating antibody and 250 ng/ml for the second antibody).

IL-2 = assay: Custom AntibodyArray, TRiPS cells: IL-2; settings: 15 μg/ml, 30 minutes
Experimental: as §1, §2

RAP2 = assay: Custom AntibodyArray, TRiPS cells: RAP2; settings: 15 μg/ml, 30 minutes
Experimental: as §1, §2

STAT4 = assay: Custom AntibodyArray, TRiPS cells: STAT4; settings: 15 μg/ml, 30 minutes
Experimental: as §1, §2

IL-8 [1] = assay: IL-8 release by PHA-stimulated PBL, ELISA; settings: PBL donor GR-192; 2 μg/ml PHA, 96 h; Cpd II 15 μg/ml, Dex 10 μM; FIG. 8
Experimental: Whole blood was drawn from GR-192, a normal human volunteer, and processed as described in Example 1 to give heat-inactivated serum and PBL. […] After this incubation, PHA was added to give a final concentration of 2 μg/ml, and the cells were incubated for an additional 96 hours at 37° C., 5% CO2. All cultures were performed in triplicate. Cells were then removed by centrifugation at 1000 rpm for 10 minutes, and the culture medium collected.
Release of IL-8 into the culture medium was measured by ELISA. To perform the ELISA, matched pairs of antibodies against human IL-8 were purchased from Pierce Biotechnology and Biosource, respectively. ELISA strip well plates were coated with 2 μg/ml of antibody to IL-8 (in phosphate-buffered saline (PBS)) overnight at room temperature. The plates were then blocked using a 4% BSA solution in PBS for one hour, followed by the addition of 50 μl of experimental culture medium per well in duplicate. The plates were incubated at room temperature for one hour and then washed using 50 mM Tris pH 8.0 with 0.1% Tween 20. Then, solutions of 100 ng/ml biotinylated second antibody to IL-8 were made in blocking buffer, and 100 μl were added per well. The plates were incubated for 1 hour and washed again. […] OD was determined using microplate reader with a 450 nm filter.

IL-8 [2] = assay: IL-8 release from LPS-stimulated THP-1 monocytes, ELISA; settings: for inhibition at 15 µg/mL: Homo sapiens, read-out: % Inhibition (IL-8)
Experimental: THP-1 is a monocyte cell line obtained from American Type Culture Collection (ATCC) (catalog no. TIB-202). […] After 1 hour, lipopolysaccharide (LPS) (obtained from Sigma) was added to the cultures to give a final concentration of 200 ng/ml, and the cells were then incubated for an additional 4 hours or for an additional 24 hours. After the incubation, the cells were centrifuged, and the supernatants were collected. The concentrations of IL-8 and TNFα in the supernatants were determined by ELISA.
The concentrations of IL-8 in the supernatants were determined by ELISA performed as described in Example 4.

IL-8 [3] = assay: IL-8 production by CD3/CD28-stimulated TRiPS T-cell line, ELISA; settings: 15 μg/ml; CD3/CD28 Dynabeads, 24 hours
T cells = assay: CD69+TCR staining of PBL, flow cytometry (T-cell activation); settings: for CD69+TCR staining of PHA-stimulated cells: PHA alone 84%
Experimental: as §3
The cells were further analyzed by flow cytometry. Annexin was used to determine populations of dead or dying cells. Anti-CD69 antibody was used to establish the level of cellular activation. Antibody to T-cell receptor αβ (TCR) was also used. Recombinant Annexin 5 (PE and FITC conjugates) and the antibodies were all purchase from Caltag (Burlingham, Calif.) and used following the manufacturer's recommendations.

MEK1 = assay: Custom AntibodyArray, TRiPS cells: MEK1; settings: 15 μg/ml, 30 minutes
Experimental: as §1, §2

## COC(=O)C(c1ccc(-c2ccccc2)cc1)C1CCCCN1 (stereo not shown) [Cpd II]
RAP1
  Effect of Cpd II on the protein in CD3/CD28 stimulated TRiPS cells: Activated
TNFα
  release of TNFα from PHA-stimulated PBL: significantly inhibited the release of TNFα
IL-2
  Effect of Cpd II on the protein in CD3/CD28 stimulated TRiPS cells: Decreased level back to basal levels (Nil control)
RAP2
  Effect of Cpd II on the protein in CD3/CD28 stimulated TRiPS cells: Activated
STAT4
  Effect of Cpd II on the protein in CD3/CD28 stimulated TRiPS cells: Activated
IL-8 [1]
  IL-8 release induced by PHA: significantly inhibited IL-8 release induced by PHA
IL-8 [2]; THP-1, 4 h
  inhibition at 15 µg/mL: 23%
IL-8 [2]; THP-1, 24 h
  inhibition at 15 µg/mL: 33%
IL-8 [2]; THP-1, LPS 200 ng/ml, 4 hours, Cpd II 15 μg/ml, Dex 10 μM, LPS alone 2844.60
  Mean IL-8 Concentration: 2185.00 ± 78.30 pg/mL
IL-8 [2]; THP-1, LPS 200 ng/ml, 24 hours, Cpd II 15 μg/ml, Dex 10 μM, LPS alone 6653.20
  Mean IL-8 Concentration: 4490.20 ± 264.46 pg/mL
IL-8 [2]; THP-1, LPS 200 ng/ml, Cpd II 15 μg/ml, Dex 10 μM
  release of IL-8 from LPS-stimulated monocytes (in words): significantly inhibited the release of IL-8
IL-8 [3]
  IL-8 production by the TRiPS cell line: no effect on IL-8 production
T cells; PHA 5 μg/ml plus 15 μg/ml
  CD69+TCR staining of PHA-stimulated cells: 64%
T cells; PHA 5 μg/ml plus 50 μg/ml
  CD69+TCR staining of PHA-stimulated cells: 54%
T cells; compound alone, no PHA
  CD69+TCR staining (activated T cells): not detected
MEK1
  Effect of Cpd II on the protein in CD3/CD28 stimulated TRiPS cells: Decreased level to below basal levels (Nil control)

Reference: patent publication US20060183773A1, “Uses of methylphenidate derivatives” (priority 2005, published 2006)
